Measurements reported in patent US20240366598A1, “GLUCOSE-DEPENDENT INSULINOTROPIC POLYPEPTIDE RECEPTOR ANTAGONISTS AND USES THEREOF” (Pfizer Inc., priority 2023, published 2024).

molecular target: T1, human Glucose-dependent Insulinotropic Polypeptide Receptor (hGIPR) (Homo sapiens, UniProt P48546); test: Functional in vitro GIPR antagonist potency assay (cAMP HTRF, CHO-K1 cells stably expressing hGIPR, hGIP stimulation at about EC80); assay type: cell-based; settings: geometric mean, hGIP at estimated EC80, examples marked ^2: overall geometric mean of multiple forms (including salts) tested
T1 sequence (P48546 22-466): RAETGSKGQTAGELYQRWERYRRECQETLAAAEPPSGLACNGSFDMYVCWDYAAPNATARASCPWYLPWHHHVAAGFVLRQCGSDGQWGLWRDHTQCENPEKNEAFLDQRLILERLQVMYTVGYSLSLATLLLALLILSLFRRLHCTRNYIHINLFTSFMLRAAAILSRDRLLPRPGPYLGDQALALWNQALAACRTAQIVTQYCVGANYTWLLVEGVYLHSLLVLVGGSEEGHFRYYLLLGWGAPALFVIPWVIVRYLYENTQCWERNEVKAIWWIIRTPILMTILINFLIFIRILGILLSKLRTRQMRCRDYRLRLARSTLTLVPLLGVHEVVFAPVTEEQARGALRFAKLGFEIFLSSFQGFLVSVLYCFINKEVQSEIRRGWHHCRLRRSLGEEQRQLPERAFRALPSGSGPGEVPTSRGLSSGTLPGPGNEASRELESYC
Protocol: Example AA. Functional In Vitro GIPR Antagonist Potency Assay
The functional in vitro antagonist potency for test compounds was determined by monitoring intracellular cyclic adenosine monophosphate (cAMP) levels in Chinese hamster ovary (CHO)—K1 cells stably expressing the human Glucose-dependent Insulinotropic Polypeptide Receptor (hGIPR). Following agonist activation, hGIPR associates with the G-protein complex causing the Gαs subunit to exchange bound guanosine diphosphate (GDP) for guanosine triphosphate (GTP), followed by dissociation of the Gαs-GTP complex. The activated Gas subunit can couple to downstream effectors to regulate the levels of second messengers or cAMP within the cell. Thereby, determination of intracellular cAMP levels allows for pharmacological characterization. Intracellular cAMP levels are quantitated using a homogenous assay utilizing the Homogeneous Time Resolved Fluorescence (HTRF) technology from Perkin Elmer. […] The two entities compete for binding to a monoclonal anti-cAMP antibody labeled with cryptate. The specific signal is inversely proportional to the concentration of cAMP in the cells.
Test compounds were solubilized to a concentration of 30 mM in 100% dimethyl sulfoxide (DMSO). An 11-point dilution series using 1 in 3.162-fold serial dilutions was created in 100% DMSO with a top concentration of 8 mM. The serially diluted compound was spotted with an Echo Acoustic liquid handler (Beckman Coulter) into a 384-well assay plate (Corning, Cat No. 3824) at 50 nL/well with duplicate points at each concentration, at a 200× final assay concentration (FAC). The final compound concentration range in the assay was 40 μM to […], with a final DMSO concentration of 0.5%.
Frozen assay-ready vials (at 1×10^7 cells/vial) of CHO-K1 cells stably expressing the Gs-coupled human GIPR receptor (Eurofins, DiscoverX, Cat No. 95-0146C2) were thawed, counted, and resuspended in assay buffer consisting of Hank's Balanced Salt Solution (HBSS, Lonza Cat No. 10-527) containing 20 mM (4-(2-hydroxyethyl)-1-piperazineethanesulfonic acid (HEPES, Lonza, Cat No. 17-737E), 0.1% bovine serum albumin (BSA, Sigma, Cat No. A7979), and 200 μM 3-isobutyl-1-methylxanthine (IBMX, Sigma, Cat No. 15879) at a density of 4×10^5 cells/mL. Cells were added to assay plate (5 μL/well of 4×10^5 cells/mL stock for 2,000 cells/well final) containing 50 nL of 200× FAC test compound, and incubated at 37° C. (95% O2: 5% CO2) for 2 hours, with micro-clime lids (Labcyte, Cat No. LLS-0310). Following the 2-hour cell and compound incubation, a stimulation mix comprised of hGIPR agonist human glucose-dependent insulinotropic polypeptide (hGIP, full length, Sigma Cat No. G2269) in assay buffer/0.1% DMSO was added to the assay plate (5 μL/well) at an estimated EC80 FAC (based on previous hGIP agonist curves) and incubated for another 30 minutes with micro-clime lids at 37° C. (95% O2: 5% CO2), after which intracellular cAMP levels were quantified as per Perkin Elmer's protocol (5 μL of d2 and then 5 μL cryptate, incubated for 1 hour at room temperature). Emission spectra of samples were measured on a Pherastar plate reader (BMG Labtech Inc) using a HTRF protocol (excitation, 320 nm; emission, 665 nm/620 nm).
(95% O2: 5% CO2), with a micro-clime lid. Following the 2-hour cell and DMSO incubation, a hGIP concentration response curve at 2× FAC (12-point curve using 1 in 3 serial dilutions, with triplicate points at each concentration, 100 nM final top concentration) in assay buffer/1% DMSO was added (5 μL/well) and incubated for a further 30 minutes with a micro-clime lid at 37° C. (95% O2: 5% CO2), after which intracellular cAMP levels were quantified and samples measured as described previously. Experiments passed quality control if the agonist concentration used for stimulation fell between the on-the-day EC50-EC90. […]

Compound	IC50
Cc1cc(NC(=O)N2CCC[C@@H]2C(=O)Nc2ccc(-c3ccc(C(=O)O)cc3)nc2)ncc1C(F)(F)F [Example 222, 4-{5-[(1-{[4-methyl-5-(trifluoromethyl)pyridin-2-yl]carbamoyl}-D-prolyl)amino]pyridin-2-yl}benzoic acid]	100 nM
CC(C)c1ccc(NC(=O)N2CCC[C@@H]2C(=O)Nc2ccc(-c3cc(F)c(C(=O)O)c(Cl)c3)cc2)cc1 [Example 83, 3-chloro-5-fluoro-4′-[(1-{[4-(propan-2-yl)phenyl]carbamoyl}-D-prolyl)amino][1,1′-biphenyl]-4-carboxylic acid]	230 nM
Cc1cc(NC(=O)N2CCC[C@@H]2C(=O)Nc2ccc(-c3ccc(C(=O)O)c(F)c3)cn2)ccc1C(C)C [Example 187, 2-fluoro-4-{6-[(1-{[3-methyl-4-(propan-2-yl)phenyl]carbamoyl}-D-prolyl)amino]pyridin-3-yl}benzoic acid]	51 nM
Cc1cc(O)ccc1-c1ccc(NC(=O)[C@H]2CCCN2C(=O)Nc2ccc(C(C)C)cc2)cc1 [Example 97, (2R)-N^2-(4′-hydroxy-2′-methyl[1,1′-biphenyl]-4-yl)-N^1-[4-(propan-2-yl)phenyl]pyrrolidine-1,2-dicarboxamide]	230 nM
Cc1nc(C(=O)O)ccc1-c1ccc(NC(=O)[C@H]2CCCN2C(=O)Nc2ccc(C(C)C)cc2)cc1 [Example 20, 6-Methyl-5-{4-[(1-{[4-(propan-2-yl)phenyl]carbamoyl}-D-prolyl)amino]phenyl}pyridine-2-carboxylic acid]	12 nM
CC(C)c1ccc(NC(=O)N2CCC[C@@H]2C(=O)Nc2ccc3cc(C(=O)O)ccc3c2)cc1 (racemic) [Example 41, 6-[(1-{[4-(propan-2-yl)phenyl]carbamoyl}prolyl)amino]naphthalene-2-carboxylic acid]	160 nM
Cc1cc(NC(=O)N2CCC[C@@H]2C(=O)Nc2ccc(-c3ccc(C(=O)O)nc3)cc2)ccc1C(C)C [Example 19, 5-{4-[(1-{[3-Methyl-4-(propan-2-yl)phenyl]carbamoyl}-D-prolyl)amino]phenyl}pyridine-2-carboxylic acid]	11 nM
Cc1cc(C(=O)O)ncc1-c1ccc(NC(=O)[C@H]2CCCN2C(=O)Nc2ccc(C(C)C)cc2)cc1 [Example 57, 4-methyl-5-{4-[(1-{[4-(propan-2-yl)phenyl]carbamoyl}-D-prolyl)amino]phenyl}pyridine-2-carboxylic acid]	65 nM
CC(C)c1ccc(NC(=O)N2CCC[C@@H]2C(=O)Nc2ccc(-c3ccc(O)c(C#N)c3)cc2)cc1 [Example 100, (2R)-N^2-(3′-cyano-4′-hydroxy[1,1′-biphenyl]-4-yl)-N^1-[4-(propan-2-yl)phenyl]pyrrolidine-1,2-dicarboxamide]	27 nM
Cc1cc(-c2ccc(NC(=O)[C@H]3CCCN3C(=O)Nc3ccc(C(C)C)cc3)cc2)ccc1C(N)=O [Example 52, (2R)-N^2-(4′-carbamoyl-3′-methyl[1,1′-biphenyl]-4-yl)-N^1-[4-(propan-2-yl)phenyl]pyrrolidine-1,2-dicarboxamide]	120 nM
O=C(O)c1ccc2cc(NC(=O)[C@H]3CCCN3C(=O)Nc3ccc(C(F)(F)F)cc3)ccc2c1 [Example 161, 6-[(1-{[4-(trifluoromethyl)phenyl]carbamoyl}-D-prolyl)amino]naphthalene-2-carboxylic acid]	77 nM
Cc1cc(-c2ccc(NC(=O)[C@H]3CCCN3C(=O)Nc3ccc(C(C)C)cc3)cc2)cc(C)c1C(=O)O [Example 53, 3,5-dimethyl-4′-[(1-{[4-(propan-2-yl)phenyl]carbamoyl}-D-prolyl)amino][1,1′-biphenyl]-4-carboxylic acid]	15 nM
COc1cc(-c2ccc(NC(=O)[C@H]3CCCN3C(=O)Nc3ccc(C(C)C)cc3)cc2)ccc1C(=O)O [Example 21, 3-Methoxy-4′-[(1-{[4-(propan-2-yl)phenyl]carbamoyl}-D-prolyl)amino][1,1′-biphenyl]-4-carboxylic acid]	11 nM

More lines, in order of falling IC50, values ahead:

IC50	Compound
430 nM	CC(C)c1ccc(NC(=O)N2CCC[C@@H]2C(=O)Nc2ccc(-c3ccc(F)c(C(=O)O)c3F)cc2)cc1 [Example 88, 2,4-difluoro-4′-[(1-{[4-(propan-2-yl)phenyl]carbamoyl}-D-prolyl)amino][1,1′-biphenyl]-3-carboxylic acid]
79 nM	CC(C)c1ccc(CNC(=O)N2CCC[C@@H]2C(=O)Nc2ccc(-c3cccc(C(=O)O)c3)cn2)cc1 [Example 224, 3-(6-{[1-{{[4-(propan-2-yl)phenyl]methyl}carbamoyl)-D-prolyl]amino}pyridin-3-yl) benzoic acid]
47 nM	Cc1cc(-c2ccc(NC(=O)[C@H]3CCCN3C(=O)Nc3ccc(C(C)C)cc3)cc2)cc(F)c1C(=O)O [Example 69, 3-fluoro-5-methyl-4′-[(1-{[4-(propan-2-yl)phenyl]carbamoyl}-D-prolyl)amino][1,1′-biphenyl]-4-carboxylic acid]
18 nM	COc1cc(-c2ccc(NC(=O)[C@H]3CCCN3C(=O)Nc3ccc(C(C)C)cc3)cc2)c(F)cc1C(=O)O [Example 89, 2-fluoro-5-methoxy-4′-[(1-{[4-(propan-2-yl)phenyl]carbamoyl}-D-prolyl)amino][1,1′-biphenyl]-4-carboxylic acid]
16 nM	CC(C)c1ccc(NC(=O)N2CCC[C@@H]2C(=O)Nc2ccc(-c3ccc(C(=O)O)nc3)cc2)cc1 [Example 1, Ammonium 5-{4-[(1-{[4-(propan-2-yl)phenyl]carbamoyl}-D-prolyl)amino]phenyl}pyridine-2-carboxylate]
15 nM	CC(C)c1ccc(NC(=O)N2CCC[C@@H]2C(=O)Nc2ccc(-c3ccc(C(=O)O)cc3Cl)cc2)cc1 [Example 79, 2-chloro-4′-[(1-{[4-(propan-2-yl)phenyl]carbamoyl}-D-prolyl)amino][1,1′-biphenyl]-4-carboxylic acid]
13 nM	CC(c1ccc(NC(=O)N2CCC[C@@H]2C(=O)Nc2ccc(-c3ccc(C(=O)O)cc3)cc2)cc1)C(F)(F)F (stereo partly drawn) [Example 147, 4′-[(1-{[4-(1,1,1-trifluoropropan-2-yl)phenyl]carbamoyl}-D-prolyl)amino][1,1′-biphenyl]-4-carboxylic acid]
10 nM	C=C(C)c1ccc(NC(=O)N2CCC[C@@H]2C(=O)Nc2ccc(-c3ccc(C(=O)O)cc3)cc2)cc1 [Example 12, 4′-[(1-{[4-(prop-1-en-2-yl)phenyl]carbamoyl}-D-prolyl)amino][1,1′-biphenyl]-4-carboxylic acid]
4.9 nM	CC(C)c1ccc(NC(=O)N2CCC[C@@H]2C(=O)Nc2ccc(-c3ccc(C(=O)O)nc3)cc2)cc1F [Example 208, 5-{4-[(1-{[3-fluoro-4-(propan-2-yl)phenyl]carbamoyl}-D-prolyl)amino]phenyl}pyridine-2-carboxylic acid]
